Measured values taken from patent publication US11007206B2, “Cyclic boronic acid ester derivatives and therapeutic uses thereof” (Melinta Subsidiary Corp., priority 2012, dated 2021).
Where “and” joins values, the source holds several entries; their conditions need not be identical. Identical values can stand only once.

Test: Plasma pharmacokinetics of Compound I after single intraperitoneal dose in Swiss-Webster mice (Example 1)
Type: in vivo
Conditions: mouse plasma, individual animals
Experimental: Example 1 provides a summary of three pharmacokinetic studies Compound I conducted in Swiss-webster mice. The pharmacokinetics of 5 mg/kg, 15 mg/kg and 50 mg/kg of Compound I via the intraperitoneal route were discussed.
Compound I was prepared using the method described in the U.S. Publication 2012/0040932 A1. 100 mg of Compound I was dissolved in 30% 1N NaOH to ˜pH 5.0 as a stock solution. Compound I was further diluted in 0.9% saline to achieve target concentrations.
The specifications for animals used on this study were as follows: • Species: Mouse • Strain: CFW (Swiss) • Gender: Female • Source: Harlan Laboratories (Livermore, Calif.) • Number of Animals: 33 for each dose • Body Weight Range: 18-22 g at the start of the study
After acclimation, mice were administered a single intraperitoneal dose of Compound I at 5, 15, and 50 mg/kg. Groups of three mice were sacrificed at 0.08, 0.16, 0.25, 0.33, 0.5, 0.75, 1.0, 2.0, 3.0, and 4.0 h after dosing. Blood samples (one sample per animal) were collected by cardiac puncture in a heparin containing tube. Blood samples were centrifuged within 5 min of collection at 12000 g for 5 min to obtain plasma. The plasma samples were stored on −80° C. until analyzed.
Compound I standard curves were prepared in plasma from 0.1 to 100 μg/mL. 50 μl aliquots of sample were placed in 1.5 mL microcentrifuge tubes. 20 μl of Compound II (10 μg/mL) was added as internal standard to each sample or standard. 20 μl of 30% trichloroacetic acid was then added to each sample or standard. The samples were mixed using a vortex mixer centrifuged for 10 min at 15,000 RPM using a tabletop centrifuge. The supernatant (approx. […]) was removed and added to 100 μl of water in a 96-well plate. The samples were mixed again using a vortex mixer. 10 μl of each sample was injected onto an HPLC-MS for quantification.
The HPLC-MS conditions for plasma analysis are as follows: • Column: Phenomenex Fusion-RP or equivalent reversed-phase column, 5 um, 50×2 mm. • Flow rate: 0.6 mL/min. • Mobile phase A: 0.1% formic acid in water. • Mobile phase B: 0.1% formic acid in acetonitrile. • Gradient: 5-60% B in 1.5 min. • Mass spectrometer: Negative ion mode with electrospray ionization. • MS/MS: Compound I-Q1-m/e=296, Q3-m/e=234. • Compound II-Q1-m/e=331, Q3-m/e=201.
Plasma concentrations were fit using a one compartment IV infusion model (WinNonlinVersion 5.3, Pharsight Corp, and Mountain View, Calif.).

Structure (SMILES): O=C(O)C[C@@H]1CC[C@H](NC(=O)Cc2cccs2)B(O)O1 [Compound I]
- concentration at 4 h (female, CFW (Swiss-Webster), mouse, plasma, ip, 15 mg/kg, 15 mg/kg intraperitoneal, samples m.p. 10.x = 10th time point (4.0 h), read-out: Calc. Conc. (plasma concentration)): < 0 ng/mL
- concentration at 0.08 h (female, CFW (Swiss-Webster), mouse, plasma, ip, 50 mg/kg, 50 mg/kg intraperitoneal, samples m.p. 1.x = 1st time point (0.08 h), read-out: Calc. Conc. (plasma concentration)): 34800 ng/mL
- concentration at 0.16 h (female, CFW (Swiss-Webster), mouse, plasma, ip, 50 mg/kg, 50 mg/kg intraperitoneal, samples m.p. 2.x = 2nd time point (0.16 h), 5x dil., read-out: Calc. Conc. (plasma concentration)): 58900 ng/mL
- concentration at 0.25 h (female, CFW (Swiss-Webster), mouse, plasma, ip, 50 mg/kg, 50 mg/kg intraperitoneal, samples m.p. 3.x = 3rd time point (0.25 h), 5x dil., read-out: Calc. Conc. (plasma concentration)): 64200 ng/mL
- concentration at 0.75 h (female, CFW (Swiss-Webster), mouse, plasma, ip, 50 mg/kg, 50 mg/kg intraperitoneal, samples m.p. 6.x = 6th time point (0.75 h), read-out: Calc. Conc. (plasma concentration)): 19100 ng/mL
- concentration at 3 h (female, CFW (Swiss-Webster), mouse, plasma, ip, 50 mg/kg, 50 mg/kg intraperitoneal, samples m.p. 9.x = 9th time point (3.0 h), read-out: Calc. Conc. (plasma concentration)): 181 ng/mL
- Calc. Conc. (plasma concentration) (5 mg/kg intraperitoneal, samples m.p. 1.x = 1st time point (0.08 h), 5 mg/kg): 5.77 µg/mL and 4.84 µg/mL
- Calc. Conc. (plasma concentration) (5 mg/kg intraperitoneal, samples m.p. 2.x = 2nd time point (0.16 h), 5 mg/kg): 9.68 µg/mL and 7.41 µg/mL and 3.49 µg/mL
- Calc. Conc. (plasma concentration) (5 mg/kg intraperitoneal, samples m.p. 3.x = 3rd time point (0.25 h), 5 mg/kg): 9.08 µg/mL and 7.43 µg/mL and 3.8 µg/mL
- Calc. Conc. (plasma concentration) (5 mg/kg intraperitoneal, samples m.p. 4.x = 4th time point (0.33 h), 5 mg/kg): 3.37 µg/mL and 1.01 µg/mL and 3.73 µg/mL
- Calc. Conc. (plasma concentration) (5 mg/kg intraperitoneal, samples m.p. 5.x = 5th time point (0.5 h), 5 mg/kg): 1.87 µg/mL and 1.31 µg/mL
- Calc. Conc. (plasma concentration) (5 mg/kg intraperitoneal, samples m.p. 6.x = 6th time point (0.75 h), 5 mg/kg): 0.110 µg/mL and 0.872 µg/mL and 0.461 µg/mL
- Calc. Conc. (plasma concentration) (5 mg/kg intraperitoneal, samples m.p. 7.x = 7th time point (1.0 h), 5 mg/kg): 0.551 µg/mL and 0.213 µg/mL and 0.457 µg/mL
- Calc. Conc. (plasma concentration) (5 mg/kg intraperitoneal, samples m.p. 8.x = 8th time point (2.0 h), 5 mg/kg): 0.0898 µg/mL and 0.0404 µg/mL and 0.0440 µg/mL
- Calc. Conc. (plasma concentration) (5 mg/kg intraperitoneal, samples m.p. 9.x = 9th time point (3.0 h), 5 mg/kg): 0.0103 µg/mL and 0.0354 µg/mL and 0.00806 µg/mL
- Calc. Conc. (plasma concentration) (5 mg/kg intraperitoneal, samples m.p. 10.x = 10th time point (4.0 h), 5 mg/kg): 0.00577 µg/mL and 0.00418 µg/mL
- Calc. Conc. (plasma concentration) (15 mg/kg intraperitoneal, samples m.p. 1.x = 1st time point (0.08 h), 15 mg/kg): 9.67 µg/mL
- Calc. Conc. (plasma concentration) (15 mg/kg intraperitoneal, samples m.p. 2.x = 2nd time point (0.16 h), 15 mg/kg): 8.58 µg/mL
- Calc. Conc. (plasma concentration) (15 mg/kg intraperitoneal, samples m.p. 3.x = 3rd time point (0.25 h), 15 mg/kg): 9.53 µg/mL and 5.59 µg/mL and 14.3 µg/mL
- Calc. Conc. (plasma concentration) (15 mg/kg intraperitoneal, samples m.p. 4.x = 4th time point (0.33 h), 15 mg/kg): 5.6 µg/mL and 12.3 µg/mL and 4.44 µg/mL
- Calc. Conc. (plasma concentration) (15 mg/kg intraperitoneal, samples m.p. 5.x = 5th time point (0.5 h), 15 mg/kg): 4.07 µg/mL and 3.52 µg/mL and 7.05 µg/mL
- Calc. Conc. (plasma concentration) (15 mg/kg intraperitoneal, samples m.p. 6.x = 6th time point (0.75 h), 15 mg/kg): 0.0261 µg/mL and 3.72 µg/mL and 2.99 µg/mL
- Calc. Conc. (plasma concentration) (15 mg/kg intraperitoneal, samples m.p. 7.x = 7th time point (1.0 h), 15 mg/kg): 0.534 µg/mL and 2.28 µg/mL and 1.61 µg/mL
- Calc. Conc. (plasma concentration) (15 mg/kg intraperitoneal, samples m.p. 8.x = 8th time point (2.0 h), 15 mg/kg): 0.145 µg/mL and 0.0926 µg/mL
- Calc. Conc. (plasma concentration) (15 mg/kg intraperitoneal, samples m.p. 9.x = 9th time point (3.0 h), 15 mg/kg): <0 ug/mL (2×) and 0.0178 ug/mL
- Calc. Conc. (plasma concentration) (50 mg/kg intraperitoneal, samples m.p. 1.x = 1st time point (0.08 h), 50 mg/kg): 39.4 µg/mL and 26.6 µg/mL
- Calc. Conc. (plasma concentration) (50 mg/kg intraperitoneal, samples m.p. 2.x = 2nd time point (0.16 h), 5x dil., 50 mg/kg): 64.7 µg/mL and 57.7 µg/mL and 58.9 µg/mL
- Calc. Conc. (plasma concentration) (50 mg/kg intraperitoneal, samples m.p. 3.x = 3rd time point (0.25 h), 5x dil., 50 mg/kg): 56.8 µg/mL and 61.7 µg/mL and 64.2 µg/mL
- Calc. Conc. (plasma concentration) (50 mg/kg intraperitoneal, samples m.p. 4.x = 4th time point (0.33 h), 50 mg/kg): 42.1 µg/mL and 43.6 µg/mL and 135 µg/mL
- Calc. Conc. (plasma concentration) (50 mg/kg intraperitoneal, samples m.p. 5.x = 5th time point (0.5 h), 50 mg/kg): 34.7 µg/mL and 27.0 µg/mL and 4.06 µg/mL
- Calc. Conc. (plasma concentration) (50 mg/kg intraperitoneal, samples m.p. 6.x = 6th time point (0.75 h), 50 mg/kg): 11.4 µg/mL and 15.0 µg/mL
- Calc. Conc. (plasma concentration) (50 mg/kg intraperitoneal, samples m.p. 7.x = 7th time point (1.0 h), 50 mg/kg): 9.26 µg/mL and 2.33 µg/mL and 1.40 µg/mL
- Calc. Conc. (plasma concentration) (50 mg/kg intraperitoneal, samples m.p. 8.x = 8th time point (2.0 h), 50 mg/kg): 0.555 µg/mL and 1.30 µg/mL and 0.582 µg/mL
- Calc. Conc. (plasma concentration) (50 mg/kg intraperitoneal, samples m.p. 9.x = 9th time point (3.0 h), 50 mg/kg): 0.120 µg/mL and 0.105 µg/mL
- Calc. Conc. (plasma concentration) (50 mg/kg intraperitoneal, samples m.p. 10.x = 10th time point (4.0 h), 50 mg/kg): 0.0471 µg/mL and 0.143 µg/mL and 0.199 µg/mL
